From US10588934B2, “Opioid peptide” (priority 2014, dated 2020)
Like-named read-outs stand apart in the source and are kept apart here. Ends that are not written are not given here.

Assays:
Swiss mice [1] = experiment: Tail flick (tail removal) nociception test; assay type: in vivo, Mus musculus; conditions: for activity profile of the group given substance+naloxone compared with saline: with serial naloxone 4 mg/kg
Experimental: (§1) In vivo analyzes: Tests were carried out on Swiss mice of the Mus musculus species, in which nociception tests (hot plate and tail removal test) were used according to Le Bars et al. (2001). Injections were administered via intraperitoneal (IP). Doses were based upon dose and molaridade of the morphine (10 mg/kg animal).
(§2) FIGS. 1,2,3 and 4 represent the raw data obtained from the experiments after statistical analysis. The symbols (*, **, #) indicate the beginning of the statistically significant activity (S) or the statistically non-significant differences (NS). Analyzes of opioid activity were performed in two classical models of studies for this activity: Tail Flick or Hot Plate test.

Swiss mice [2] = assay type: in vivo, Mus musculus
Experimental: as §1, §2

trypsin = conditions: 37° C., 15 minutes to 4 hours, MALDI
Experimental: Representation of the fragments obtained at the different incubation times with the enzyme trypsin. Analysis performed by mass spectrometry, MALDI. The first spectrum, marked with the letter A, refers to the time of 15 minutes; The second spectrum marked with the letter B indicates the time of 30 minutes; C indicates the time of 1 hour; D indicates the time of 2 hours; E indicates the time of 4 hours and, finally, F is the control peptide (SEQ ID NO: 2).

Which results are given for `C=CCN1CC[C@]23c4c5ccc(O)c4O[C@H]2C(=O)CC[C@@]3(O)[C@H]1C5` [naloxone, reference compound]?
activity profile of naloxone alone compared with saline (Swiss mice [1]; tail-flick, naloxone 4 mg/kg): no significant differences in activity profile; activity profile of naloxone alone compared with saline (Swiss mice [2]; hot plate, naloxone 4 mg/kg): no significant differences in activity profile

“SEQ ID NO: 1: opioid peptide of formula TyrProPhe-X1-TrpGlyGly-X2-ProPro (X1 Gly or Lys; X2 Ile or Val); exact sequence not printed in the text (YPFGWGGIPP)” was tested. Which “cumulative effect over time (area under the curve)” value (Swiss mice [1]; tail flick, compared with morphine and Leu-enkephalin) did it give?
The value was “greater than morphine and similar to Leu-enkephalin”.

What about the “time from which there was no significant difference from Leu-enkephalin (peptide positive control)” value (Swiss mice [1]; tail-flick, IP, Leu-enkephalin 19.3 mg/kg, P>0.05) of the same compound?
The value was “no significant difference throughout the assay”.

And the “time at which statistically significant antinociceptive action started, in relation to saline” value (Swiss mice [1]; tail-flick, IP, dose equimolar to morphine 10 mg/kg, test of 240 min)?
The value was 90 min.

And the “time from which there was no significant difference from morphine (positive control)” value (Swiss mice [1]; tail-flick, IP, morphine 10 mg/kg)?
The value was 90 min.

What about the “time up to which the significant antinociceptive action lasted, in relation to saline” value (Swiss mice [1]; tail-flick, IP, test of 240 min) of the same compound?
Its value is 240 min.

What about the “difference between peptide alone and peptide+naloxone (naloxone reversal)” value (Swiss mice [1]; tail-flick, serial hourly naloxone 4 mg/kg, P<0.001) of the same compound?
The value was “Except for the time of 30 min, there were significant differences”.

What about the “activity profile of the group given substance+naloxone compared with saline” value (Swiss mice [1]; tail-flick) of the same compound?
Its value is “no significant differences in activity profile”.

And the “time from which there were no statistically significant differences from morphine” value (Swiss mice [2]; hot plate, IP, morphine 10 mg/kg, P>0.05)?
The value was 60 min.

And the “persistence of the significant difference in relation to saline” value (Swiss mice [2]; hot plate, IP, test of 240 min)?
The value was “at the time of 120 minutes, there was no significant difference”.

And the “time at which statistically significant antinociceptive activity started, in relation to saline” value (Swiss mice [2]; hot plate, IP, test of 240 min)?
The value was 60 min.

What about the “difference between peptide alone and peptide+naloxone (naloxone reversal)” value (Swiss mice [2]; hot plate, serial naloxone 4 mg/kg, later discontinued) of the same compound?
Its value is “no significant differences only at 210 minutes and 240 minutes”.

And the “activity after administration of naloxone was discontinued” value (Swiss mice [2]; hot plate, substance+naloxone group)?
The value was “returned to action”.

What about the “cumulative effect over time (area below the curve)” value (Swiss mice [2]; mouse, in vivo) of the same compound?
Its value is “higher cumulative effect similar to morphine and Leu-encefaiina”.

What about the “difference from Leu-enkephalin” value (Swiss mice [2]; mouse, in vivo) of the same compound?
The value was “no statistically significant differences”.

What does the source list for “YGGFL [Leu-enkephalin, reference compound]”?
activity profile of the group given substance+naloxone compared with saline (Swiss mice [1]; tail-flick): no significant differences in activity profile; activity after administration of naloxone was discontinued (Swiss mice [2]; mouse, in vivo): activity has also been resumed; activity profile of the group given substance+naloxone compared with saline (Swiss mice [2]; mouse, in vivo): no significant differences in activity profile

Which “intensity of the major (precursor ion) peak during incubation with the enzyme” value (trypsin) does the source give for YPFKWGGVPP [SEQ ID NO: 2] here?
Its value is “will reduce its intensity”.
